Measurements from patent publication US9328374B2, “Selective culture medium and method for detecting carbapenem-resistant bacteria in a test sample” (Institut National de la Sante et de la Recherche Medicale …, priority 2011, dated 2016).
Like-named read-outs stand apart in the source and are kept apart here.

Experiments:
K. pneumoniae = experiment: MIC of imipenem, ertapenem and meropenem; format: cell-based, Klebsiella pneumoniae; conditions: Klebsiella pneumoniae, read-out: MIC
P. mirabilis = experiment: MIC of imipenem, ertapenem and meropenem; format: cell-based

C[C@@H](O)[C@H]1C(=O)N2C(C(=O)O)=C(S[C@@H]3CN[C@H](C(=O)Nc4cccc(C(=O)O)c4)C3)[C@H](C)[C@H]12 [ETP, ertapenem]
MIC (K. pneumoniae; K. pneumoniae LEG, CTX-M-15 + TEM-1 + SHV-12, non-carbapenemase producer, porin deficiency): > 32 µg/mL
MIC (K. pneumoniae; K. pneumoniae LIB (OXA-48)): > 32 µg/mL
MIC (K. pneumoniae; K. pneumoniae LIB, OXA-48): 16 µg/mL
MIC (K. pneumoniae; K. pneumoniae LIE, KPC-2 + TEM-2 + OXA-9): > 32 µg/mL
MIC (K. pneumoniae; K. pneumoniae LOU, OXA-48): 16 µg/mL
MIC (K. pneumoniae; K. pneumoniae MAD (VIM-1 + CTX-M-3)): 0.5 µg/mL
MIC (K. pneumoniae; K. pneumoniae MAD, VIM-1+ CTX-M-3): 0.5 µg/mL
MIC (K. pneumoniae; K. pneumoniae MEK (CTX-M-15 + SHV-11)): > 32 µg/mL
MIC (K. pneumoniae; K. pneumoniae MEK, CTX-M-15 + SHV-11, non-carbapenemase producer, porin deficiency): > 32 µg/mL
MIC (K. pneumoniae; K. pneumoniae MUS (KPC-2 + TEM-1 + SHV-11 + SHV-12)): 4 µg/mL
MIC (K. pneumoniae; K. pneumoniae MUS, KPC-2 + TEM-1 + SHV-11 + SHV-12): 4 µg/mL
MIC (K. pneumoniae; K. pneumoniae OM2 (NDM-1 + TEM-1 + CTX-M-3 + SHV-11 + OXA-1)): 8 µg/mL
MIC (K. pneumoniae; K. pneumoniae OM2, NDM-1 + TEM-1 + CTX-M-3 + SHV-11 + OXA-1): 8 µg/mL
MIC (K. pneumoniae; K. pneumoniae OM4, NDM-1 + TEM-1 + CTX-M-15 + SHV-12 + OXA-9): > 32 µg/mL
MIC (K. pneumoniae; K. pneumoniae OM8, NDM-1 + TEM-1 + CTX-M-15 + SHV-11 + OXA-1): > 32 µg/mL
MIC (K. pneumoniae; K. pneumoniae OM11, OXA-48 + TEM-1 + CTX-M-14): 0.75 µg/mL
MIC (K. pneumoniae; K. pneumoniae OM13, NDM-1 + TEM-1 + CTX-M-15 + SHV-28 + OXA-1 + OXA-9): 4 µg/mL
MIC (K. pneumoniae; K. pneumoniae OM14, OXA-48 + TEM-1): 1 µg/mL
MIC (K. pneumoniae; K. pneumoniae OM15, NDM-1 + CTX-M-15 + SHV-130 + OXA-1): 12 µg/mL
MIC (K. pneumoniae; K. pneumoniae OM16, NDM-1 + CTX-M-15 + OXA-1 + OXA-181): > 32 µg/mL
MIC (K. pneumoniae; K. pneumoniae OM19, NDM-1 + CTX-M-15 + SHV-12 + OXA-1): 24 µg/mL
MIC (K. pneumoniae; K. pneumoniae OMA419 (NDM-1 + OXA-1)): 6 µg/mL
MIC (K. pneumoniae; K. pneumoniae OMA419, NDM-1 + OXA-1): 6 µg/mL
MIC (K. pneumoniae; K. pneumoniae OMA601, NDM-1 + CTX-M-15 + OXA-1 + OXA-9): > 32 µg/mL
MIC (K. pneumoniae; K. pneumoniae OMA (OXA-181 + CTX-M-15 + OXA-1)): 2 µg/mL
MIC (K. pneumoniae; K. pneumoniae OMA, OXA-181 + CTXM-15 + OXA-1): 2 µg/mL
MIC (K. pneumoniae; K. pneumoniae RAM (OXA-48)): 4 µg/mL
MIC (K. pneumoniae; K. pneumoniae RAM, OXA-48): 4 µg/mL
MIC (K. pneumoniae; K. pneumoniae ROB (OXA-48 + CTX-M-15 + TEM-1)): 3 µg/mL
MIC (K. pneumoniae; K. pneumoniae ROU (OXA-48 + CTX-M-15)): 1.5 µg/mL
MIC (K. pneumoniae; K. pneumoniae ROU, OXA-48 + CTX-M-15): 1.5 µg/mL
MIC (K. pneumoniae; K. pneumoniae SCO (OXA-48)): 0.75 µg/mL
MIC (K. pneumoniae; K. pneumoniae SCO, OXA-48): 0.75 µg/mL
MIC (K. pneumoniae; K. pneumoniae SHI (CTX-M-15 + TEM-1 + SHV-1)): 1 µg/mL
MIC (K. pneumoniae; K. pneumoniae SHI, CTX-M-15 + TEM-1 + SHV-11, non-carbapenemase producer, porin deficiency): 1 µg/mL
MIC (K. pneumoniae; K. pneumoniae SHM (CTX-M-15 + TEM-1 + SHV-11)): > 32 µg/mL
MIC (K. pneumoniae; K. pneumoniae SHM, CTX-M-15 + TEM-1 + SHV-11, non-carbapenemase producer, porin deficiency): > 32 µg/mL
MIC (K. pneumoniae; K. pneumoniae SIC (OXA-48 + CTX-M-15 + SHV-28)): 1 µg/mL
MIC (K. pneumoniae; K. pneumoniae SIC, OXA-48 + CTX-M-15 + SHV-28): 1 µg/mL
MIC (K. pneumoniae; K. pneumoniae SIM (CTX-M-15 + TEM-1 + SHV-1)): > 32 µg/mL
MIC (K. pneumoniae; K. pneumoniae SIM, CTX-M-15 + TEM-1 + SHV-1, non-carbapenemase producer, porin deficiency): > 32 µg/mL
MIC (K. pneumoniae; K. pneumoniae TAW, IMP-8 + SHV-12): 0.5 µg/mL
MIC (K. pneumoniae; K. pneumoniae TIK, OXA-48): 2 µg/mL
MIC (K. pneumoniae; K. pneumoniae TUR (IMP-1)): 2 µg/mL
MIC (K. pneumoniae; K. pneumoniae TUR, IMP-1): 2 µg/mL
MIC (K. pneumoniae; K. pneumoniae TWA, IMP-8): 1 µg/mL
MIC (K. pneumoniae; K. pneumoniae UK (NDM-1 + CTX-M-15 + CMY-4 + OXA-1)): > 32 µg/mL
MIC (K. pneumoniae; K. pneumoniae UK, NDM-1 + CTX-M-15 + CMY-4 + OXA-1): > 32 µg/mL
MIC (K. pneumoniae; K. pneumoniae VER, OXA-48 + TEM-1 + CTX-M-15 + SHV-11): 2 µg/mL
MIC (K. pneumoniae; K. pneumoniae VSG (OXA-48 + TEM-1 + CTX-M-15 + OXA-1)): 3 µg/mL
MIC (K. pneumoniae; K. pneumoniae VSG, OXA-48 + TEM-1 + CTX-M-15 + OXA-1): 3 µg/mL
MIC (K. pneumoniae; K. pneumoniae YC, KPC-2 + TEM-1 + SHV-11 + SHV-12 + OXA-9): 24 µg/mL
MIC (K. pneumoniae; strain K. pneumoniae 7725, SHV-1, non-carbapenemase producer): 0.006 µg/mL
MIC (K. pneumoniae; strain K. pneumoniae 648236, SHV-2a, non-carbapenemase producer): 2 µg/mL
MIC (K. pneumoniae; strain K. pneumoniae ALE, CTX-M-15 + SHV-1, non-carbapenemase producer): > 32 µg/mL
MIC (K. pneumoniae; strain K. pneumoniae AMS, OXA-48 + TEM-1 + CTX-M-15 + OXA-1): 2 µg/mL
MIC (K. pneumoniae; strain K. pneumoniae BAJ, OXA-48 + TEM-1 + CTX-M-15 + SHV-28): 1.5 µg/mL
MIC (K. pneumoniae; strain K. pneumoniae BED, CTX-M-15 + TEM-1 + SHV-11, non-carbapenemase producer): > 32 µg/mL
MIC (K. pneumoniae; strain K. pneumoniae BEL, OXA-48): 4 µg/mL
MIC (K. pneumoniae; strain K. pneumoniae BEN, OXA-48 + TEM-1 + CTX-M-15 + SHV-28): 1 µg/mL
MIC (K. pneumoniae; strain K. pneumoniae BER, SHV-28 + TEM-1, non-carbapenemase producer): 4 µg/mL
MIC (K. pneumoniae; strain K. pneumoniae ELK, OXA-48 + TEM-1 + CTX-M-15 + SHV-11): 3 µg/mL
MIC (K. pneumoniae; strain K. pneumoniae HOL, OXA-181 + CTX-M-15): 4 µg/mL
MIC (K. pneumoniae; strain K. pneumoniae MUS, KPC-2 + TEM-1 + SHV-11 + SHV-12): 4 µg/mL
MIC (K. pneumoniae; strain K. pneumoniae OM2, NDM-1 + TEM-1 + CTX-M-3 + SHV-11 + OXA-1): 8 µg/mL
MIC (K. pneumoniae; strain K. pneumoniae OMA419, NDM-1 + OXA-1): 6 µg/mL
MIC (K. pneumoniae; strain K. pneumoniae OMA, OXA-181 + CTXM-15 + OXA-1): 2 µg/mL
MIC (K. pneumoniae; strain K. pneumoniae ROU, OXA-48 + CTX-M-15): 1.5 µg/mL
MIC (K. pneumoniae; strain K. pneumoniae SCO, OXA-48): 0.75 µg/mL
MIC (K. pneumoniae; strain K. pneumoniae SIC, OXA-48 + CTX-M-15 + SHV-28): 1 µg/mL
MIC (K. pneumoniae; strain K. pneumoniae VSG, OXA-48 + TEM-1 + CTX-M-15 + OXA-1): 3 µg/mL
MIC (P. mirabilis; P. mirabilis PMA (ACC-1)): 0.094 µg/mL
MIC (P. mirabilis; Proteus mirabilis, P. mirabilis 1031 (CTX-M-14 + TEM-1 + SHV-11), read-out: MIC): 0.047 µg/mL
MIC (P. mirabilis; Proteus mirabilis, P. mirabilis 1031, CTX-M-14 + TEM-1 + SHV-11, non-carbapenemase producer, read-out: MIC): 0.047 µg/mL
MIC (P. mirabilis; Proteus mirabilis, P. mirabilis PMA (ACC-1), read-out: MIC): 0.12 µg/mL
MIC (P. mirabilis; Proteus mirabilis, P. mirabilis PMA, ACC-1, non-carbapenemase producer, read-out: MIC): 0.094 µg/mL
